In US20130274705A1, “FEEDBACK-BASED DIURETIC OR NATRIURETIC MOLECULE ADMINISTRATION” (MEDTRONIC, INC., priority 2012, published 2013):

Legend:
[1] = test system: anesthetized, mechanically ventilated male dog; assay: NICOM study: cardiac data in an anesthetized, mechanically ventilated dog; type: in vivo; settings: measured by NICOM monitor
Source text: A noninvasive cardiac output monitoring (NICOM) monitor was utilized to measure cardiac data from an anesthetized, mechanically ventilated, 54 lb, 42 inch (nose to base of tail) male dog. FIGS. 20-24 depict the cardiac data measured by the NICOM monitor.
The gap in data at 11:20 indicates electrocautery interference when the chest of the dog was opened. FIG. 21 depicts the data in response to sequential fluid boluses. An approximate 20% increase in CO was detected reflecting changes in both SV and HR. […] FIG. 23 depicts the cardiodepressant effect of the ultra-short beta-blocker esmolol given after dobutamine and recalibration. […] FIG. 24 depicts the response to increasing blood pressure with phenylephrine followed by decreasing blood pressure with sodium nitroprusside (SNP). Prior to this intervention, the dog chest had been opened and commercially available flow monitors had been implanted on the pulmonary artery (PA). Baseline PA flow data, which was measured by the implantable monitors, was 2.7 L/min. The PA flow data measured by the NICOM monitor was 2.812 L/min.

[2] = test system: canine model high-rate paced (HRP) to simulate HF; assay: Pharmacodynamic study of VD by continuous subcutaneous infusion in high-rate paced canine heart failure model; type: in vivo; settings: SQ infusion 100 ng/kg·min
Experimental: FIGS. 16 and 17 show the mean right atrial pressure and the mean pulmonary capillary wedge pressure, respectively, for control and experimental groups of a canine model high-rate paced (HRP). A pharmaceutical formulation of VD was prepared in a Tris buffer. 16.0 g glycerol, 6.05 g tris-(hydroxymethyl)-aminomethane (“Tris”), 2.50 g meta cresol were mixed in a 1.00 L volumetric flask. Approximately 900 mL nanopure water was added to the volumetric flask and the mixture was magnetically stirred to reach complete dissolution. 4 normal hydrochloric acid was used to adjust pH to 7.3 at 25° C. Then, the flask was filled to 1 L mark with nanopure water. The pH was rechecked and verified to be 7.3 at 25° C. The pH 7.3 Tris buffer was stored at 2-8° C. until use.
Lyophilized VD peptide (Bachem) was weighted into a glass vial and dissolved into a known volume of the Tris buffer to a concentration between 1 mg/mL and 10 mg/mL. The VD peptide was dissolved by gentle mixing and the solution was allowed to rest for between 20 and 30 minutes. The pH of the solution was checked and adjusted to 7.3 with 0.1 N sodium hydroxide. The solution was filtered through a 0.22 micron sterile filter into a sterile glass vial and stored at 2 to 8° C. until use.
The pharmacodynamic effects of VD delivered by subcutaneous infusion were investigated in a canine model high-rate paced (HRP) to a heart rate of 240 bpm (ventricular pacing) over a period of 10 days to simulate HF. The canines were divided into a control group and an experimental group. The control group received a continuous subcutaneous infusion of the Tris buffer without VD over the course of the 10 day period. The experimental group received continuous subcutaneous infusion of VD dissolved in Tris buffer at a dosing rate of 100 ng/kg·min based upon the body weight of individual canines.
Seven days prior to the beginning of HRP (Day −7), all dogs were instrumented for ventricular pacing with an IPG (implantable pulse generator) including an RA (right atrium) and RV (right ventricle) lead, and a DSI ([…]) device in the femoral artery for arterial blood pressure monitoring. Glomerular filtration rate (GFR) was measured by iohexol clearance on the day before the beginning of HRP (Day −1). On Day 0, high-rate pacing was initiated at a rate of 240 BPM (beats per minute) and maintained continuously over the course of a 10 day period (Days 0-10). After HRP was started on Day 0, urine, blood, and hemodynamic data was collected from conscious animals to serve as a baseline. […]

Dahl/SS rats = assay: Pharmacodynamic study of VD in Dahl/SS rats on 4% salt diet (blood pressure); type: in vivo, rat; settings: for blood pressure compared with 4% vehicle control group at week 3: week 3, p-value<0.05
Experimental: The pharmacodynamic effects of VD were investigated in a rat model. Forty male Dahl/SS rats were shipped to the animal facilities at PhysioGenix, Inc. (Milwaukee, Wis.). The rats were maintained on a low-salt diet and allowed to acclimate. After acclimation, animals had baseline parameters collected while on the low-salt diet. Baseline tail-cuff blood pressures and echocardiograms were measured. Baseline urine was collected for analysis of protein and albumin. Animals were then randomly assigned to one of 4 groups (10 animals per group):
1. Vehicle Control; low-salt diet, n=10 2. Vehicle Control; 4% salt diet, n=10 3. Vessel dilator, 100 ng/kg/min, 4% salt diet, n=10 4. Vessel dilator, 300 ng/kg/min, 4% salt diet, n=10
Lyophilized VD peptide (Bachem) was reconstituted in a Tris buffer having the same composition as the Tris buffer used in Example 7. The vehicle control groups were infused with a citrate-mannitol-saline buffer (0.66 mg/mL citric acid, 6.43 mg/mL sodium citrate, 40 mg/mL mannitol, 9 mg/mL NaCl). The animals were on a Teklad 7034 (low-salt) diet or Dyets AIN-76A 4% salt diet, as indicated, throughout a 6 week course of the study and had free access to water.
Alzet® minipumps (Durect, Corp.) were surgically implanted on Days 1, 15, and 29 of the study to maintain continuous vehicle or drug dispensing at the desired dose for a total period of 6 weeks. Urine was collected at baseline, 2, 4 and 6 weeks after the initiation of the treatment to assess proteinuria and albuminuria. After six weeks of treatment, the animals were then euthanized.

CNC[C@H](O)c1cccc(O)c1 [Phenylephrine, phenylephrine]
effect on cardiac output (CO) [1]: reduced CO
effect on heart rate (HR) [1]: reflex slowing of the HR

CC(CCc1ccc(O)cc1)NCCc1ccc(O)c(O)c1 (centres unmarked) [dobutamine]
effect on cardiac output (CO) [1]: marked increase in CO

COC(=O)CCc1ccc(OCC(O)CNC(C)C)cc1 (centres unmarked) [esmolol]
effect on cardiac output (CO) [1]: marked decline in CO

vessel dilator (EVVPPQVLSEPNEEAGAALSPLPEVPPWTGEVSPAQR; Vessel dilator; UniProt P01160 56-92, looked up) [VD, Natriuretic peptide of the ANP hormones; lyophilized VD peptide (Bachem) dissolved in Tris buffer]
increase in right atrial pressure compared with control group ([2]; Day 10, p-value<0.05): significantly less than for the control group
change in mean right atrial pressure from Day 0 to Day 10 ([2]; HRP 240 bpm, 10 days): increased slightly
difference in pulmonary capillary wedge pressure between control and experimental group on Day 10 ([2]; alpha 0.05, two-way repeated measures ANOVA): does not appear to be statistically significant
extent of increase in pulmonary capillary wedge pressure from Day 0 to Day 10 ([2]; versus control group): smaller than that observed in the control group
blood pressure compared with vehicle control group on 4% salt diet (Dahl/SS rats; high-dose VD 300 ng/kg/min SQ infusion): attenuated blood pressure
blood pressure compared with 4% vehicle control group at week 3 (Dahl/SS rats; high-dose VD 300 ng/kg/min): statistically significant decrease in blood pressure
decrease in blood pressure compared with 4% vehicle control group at week 5 (Dahl/SS rats; high-dose VD 300 ng/kg/min): not as statistically significant
blood pressure compared with vehicle control group on 4% salt diet (Dahl/SS rats; low-dose VD 100 ng/kg/min SQ infusion): attenuated blood pressure
blood pressure compared with 4% vehicle control group at week 3 (Dahl/SS rats; low-dose VD 100 ng/kg/min): statistically significant decrease in blood pressure
decrease in blood pressure compared with 4% vehicle control group at week 5 (Dahl/SS rats; low-dose VD 100 ng/kg/min): not as statistically significant
